{
  "source": "patent US6559182B1",
  "about": "(Purcell Jojoba International, LLC, priority 2001, dated 2003)",
  "data": [
    {"test_system": "Herpes simplex (HSV1 facial herpes or HSV2 genital herpes)", "experiment": "Survey of Herpes simplex patients who treated themselves with jojoba oil esters", "format": "in vivo, human", "conditions": "jojoba oil esters compared with the previously used medication", "text": "The study included male and female subjects with a history of multiple Herpes simplex infections that were either HSV1 facial herpes or HSV2 genital herpes. There was non intentional discrimination as to age, sex, and educational or ethnic background.\nIn this study 57 subjects compared jojoba oil ester treatment with previously used remedies, including no treatment at all. Each subject was given directions as to how to apply the jojoba oil esters. Subjects were advised to begin treatment at the very earliest warning symptoms of burning, itching or tingling that precede a new cold sore outbreak. They were directed to apply one drop of the solution to the herpes area with their finger, then reapply it again in 15 minutes and at mealtimes and bedtime for three days.\nThe study utilized a survey sheet that included the average number of outbreaks per year in the past, time and date of this new outbreak and how many hours after the first symptoms before treatment was started. Subjects reported the number of doses applied, and the number of days from the onset until they were free of symptoms. They also rated the effectiveness of this treatment compared to previous remedies they had used.", "units": {"% reporting jojoba Ester more Effective": "%"}, "values": [
      {"compound": "Nc1nc2c(ncn2COCCO)c(=O)[nH]1", "note": "[Acyclovir/Zovirax, Acyclovir]", "% reporting jojoba Ester more Effective": 84, "JOE a little More effective (number of patients who had used this Rx)": 2, "JOE a little less effective (number of patients who had used this Rx)": 1, "JOE avg effective (number of patients who had used this Rx)": 2, "JOE much more effective (number of patients who had used this Rx)": 14},
      {"compound": "CC(=O)Oc1ccccc1C(=O)O", "note": "[Aspirin]", "% reporting jojoba Ester more Effective": 100, "JOE much more effective (number of patients who had used this Rx)": 1},
      {"compound": "C[S+](C)[O-]", "note": "[DMSO]", "% reporting jojoba Ester more Effective": 100, "JOE a little More effective (number of patients who had used this Rx)": 1},
      {"compound": "CC(=O)OCC(CCn1cnc2cnc(N)nc21)COC(C)=O", "note": "[Famavir]", "% reporting jojoba Ester more Effective": 100, "JOE much more effective (number of patients who had used this Rx)": 1},
      {"compound": "OO", "note": "[Hydrogen peroxide]", "% reporting jojoba Ester more Effective": 100, "JOE a little More effective (number of patients who had used this Rx)": 1, "JOE much more effective (number of patients who had used this Rx)": 1},
      {"compound": "NCCCC[C@H](N)C(=O)O", "note": "[Lycine]", "% reporting jojoba Ester more Effective": 67, "JOE avg effective (number of patients who had used this Rx)": 2, "JOE much more effective (number of patients who had used this Rx)": 4},
      {"compound": "CC(C)[C@H](N)C(=O)OCCOCn1cnc2c(=O)[nH]c(N)nc21", "note": "[Valtrex]", "% reporting jojoba Ester more Effective": 100, "JOE a little More effective (number of patients who had used this Rx)": 1, "JOE much more effective (number of patients who had used this Rx)": 1},
      {"compound": "CC[C@H]1OC(=O)[C@H](C)[C@@H](O[C@H]2C[C@@](C)(OC)[C@@H](O)[C@H](C)O2)[C@H](C)[C@@H](O[C@@H]2O[C@H](C)C[C@H](N(C)C)[C@H]2O)[C@](C)(O)C[C@@H](C)CN(C)[C@H](C)[C@@H](O)[C@]1(C)O", "note": "[Zithromax]", "% reporting jojoba Ester more Effective": 100, "JOE much more effective (number of patients who had used this Rx)": 1}
    ]}
  ]
}
